Assay results from patent US20050070594A1, “Use of angiotensin II receptor antagonists” (Boehringer Ingelheim International GmbH, priority 2003, published 2005).

How the values were obtained:
3T3-L1 adipocytes = assay: Lipid accumulation and differentiation of 3T3-L1 adipocytes (Oil Red-O staining); type: cell-based, mouse
Description: (§1) 3T3-L1 mouse preadipocytes are cultivated in DMEM (Dulbecco's modified eagle medium) with 10% foetal calf serum (FBS). PC12W cells are cultivated in DMEM with 5% FBS and 10% equine serum. In both cases the media contain 1% penicillin/streptomycin.
(§2) The differentiation of adipocytes is induced 2-3 days after cell confluence by adding a differentiating solution. This contains • 1 μmol/L of dexamethasone, • 0.5 mmol/L of 3-isobutyl-1-methylxanthine, • 1.67 μmol/L of insulin, and • 10% FBS.
(§3) Then the cells are stimulated for another 48 hours before finally being analysed (day 4).
Cells are washed with PBS and fixed with a 3.7% formaldehyde solution for 2 minutes. After fixing, the cells are stained for 1 hour at ambient temperature with a 0.5% stock solution of Oil Red-O in isopropanol diluted 3:2 with water. After washing, the cells are examined under a light microscope.

[1] = molecular target: T1, ligand binding domain of the human PPARgamma2 transcription factor (Gal4 DNA binding domain fusion) (Homo sapiens, UniProt P37231); assay: Luciferase activity in stably transformed PPARgamma reporter cell line (CHO-K1 clone 11); type: cell-based; conditions: 24 hours
T1 construct: codes for amino acids 205-505 of the human PPARgamma2 transcription factor; expressed in transfected cells
T1 sequence (P37231 205-505): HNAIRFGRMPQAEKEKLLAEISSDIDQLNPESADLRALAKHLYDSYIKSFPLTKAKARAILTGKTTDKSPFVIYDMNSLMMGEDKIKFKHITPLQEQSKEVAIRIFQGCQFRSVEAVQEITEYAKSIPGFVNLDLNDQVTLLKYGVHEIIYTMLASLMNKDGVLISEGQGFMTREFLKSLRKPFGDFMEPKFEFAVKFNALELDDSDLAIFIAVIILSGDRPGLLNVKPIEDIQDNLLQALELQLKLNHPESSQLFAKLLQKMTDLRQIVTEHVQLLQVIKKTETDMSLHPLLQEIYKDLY
Protocol: The resulting plasmid pFA-CMV/hPPARgamma2-LBD codes N-terminally of the PPARgamma-LBD in the same reading frame for a Gal4 DNA binding domain. In addition the plasmid codes for a neomycin resistance.
The cell line CHO-K1 (ATCC CCL-61) is cotransfected with the plasmids pFA-CMV/hPPARgamma2-LBD and pFR-Luc (Stratagene). pFR-Luc codes for the luciferase gene under the control of a five-times repeated yeast Gal4 binding site. The transfection is carried out with lipofectamine2000 in accordance with the manufacturer's instructions.
After six days' cultivation the cells are passaged and kept in culture for another 10 days. The resulting neomycin-resistant colonies are picked out under the microscope and transferred into 96 well-dishes and cultured.
The test substances are brought to 100 times the desired concentration with a suitable solvent, e.g. DMSO, and diluted 1:100 with the medium placed in the cell culture plate. The solvent used, e.g. DMSO, is used as the background control in the same concentration.
Luminescence is measured after a five minute wait using a Packard TopCount NXT. The luciferase activity is obtained by integrating the relative luciferase units (RLU) of the first ten seconds after the start of measurement.

PPARgamma [2] = molecular target: T2, PPARgamma (Homo sapiens, UniProt P37231); assay: Transcription reporter assay (PPRE-luciferase) in AT1-receptor-deficient PC12W cells; type: cell-based; conditions: 10 μmol/L
T2 construct: expressed in transfected cells; host or cells: PC12W cells (AT1-receptor-deficient), transient transfection
T2 sequence (P37231 1-505): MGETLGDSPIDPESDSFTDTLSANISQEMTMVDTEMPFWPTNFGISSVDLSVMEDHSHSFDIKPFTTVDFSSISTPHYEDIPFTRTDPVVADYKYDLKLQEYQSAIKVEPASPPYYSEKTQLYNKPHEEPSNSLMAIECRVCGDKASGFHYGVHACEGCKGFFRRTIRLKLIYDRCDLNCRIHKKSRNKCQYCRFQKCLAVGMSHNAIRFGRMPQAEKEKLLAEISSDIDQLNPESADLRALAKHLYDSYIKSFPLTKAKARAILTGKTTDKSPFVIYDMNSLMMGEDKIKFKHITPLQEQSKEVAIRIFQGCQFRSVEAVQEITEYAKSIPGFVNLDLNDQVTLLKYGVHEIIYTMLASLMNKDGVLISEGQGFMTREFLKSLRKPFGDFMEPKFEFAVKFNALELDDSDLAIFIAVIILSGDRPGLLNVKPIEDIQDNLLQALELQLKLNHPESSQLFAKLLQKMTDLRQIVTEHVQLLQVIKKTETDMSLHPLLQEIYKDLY
T2 sequence (P19793 1-462 partner): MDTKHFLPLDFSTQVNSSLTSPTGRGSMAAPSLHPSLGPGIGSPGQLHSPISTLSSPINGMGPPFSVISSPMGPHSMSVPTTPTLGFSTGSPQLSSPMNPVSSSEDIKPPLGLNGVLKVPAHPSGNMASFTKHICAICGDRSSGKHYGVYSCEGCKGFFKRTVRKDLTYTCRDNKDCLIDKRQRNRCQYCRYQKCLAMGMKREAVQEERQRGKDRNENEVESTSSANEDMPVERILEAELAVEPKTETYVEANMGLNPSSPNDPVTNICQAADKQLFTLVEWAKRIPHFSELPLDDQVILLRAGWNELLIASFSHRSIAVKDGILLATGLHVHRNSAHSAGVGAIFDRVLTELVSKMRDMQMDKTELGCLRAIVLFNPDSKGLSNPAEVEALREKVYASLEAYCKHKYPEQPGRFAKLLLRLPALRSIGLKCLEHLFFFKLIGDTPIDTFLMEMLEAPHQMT
Protocol: (§4) 3T3-L1 adipocytes (day 4) or PC12W cells are transfected with Lipofectamine 2000 (Invitrogen) in the presence of 1 μg (for 3T3-L1 cells) or 50 ng (for PC12W cells) of a reporter construct, PPARgamma2 and RXRalpha expression vectors and 10 ng of a Renilla Luciferase Reporter control vector. The reporter construct is a fusion of 3xAcyl-CoA oxidase PPAR Response Element (PPRE) with Tk-luciferase. […] The Luciferase Reporter control vector is the plasmid pRL-CMV (Promega).
PC12W cells are AT1-receptor-deficient.

[3] = tested on: Adipose Protein 2 (aP2) expression; assay: Stimulation of aP2 expression in 3T3-L1 cells (real time PCR); type: cell-based, mouse; conditions: 10 μmol/L
Description: as §1, §2, §3
RNA isolation, reverse transcription and quantification of gene expression are carried out using an ABI 7000 sequence detection system-for real time PCR (described in Janke et al, Diabetes 51:1699-707, 2002). The endogenous control used for the real time PCR consists of the household genes 18S rRNA and hypoxanthine guanine phosphoribosyl transferase (hprt).

PPARgamma [4] = assay: Transcription reporter assay (PPRE-luciferase) in 3T3-L1 adipocytes; type: cell-based, mouse; conditions: 10 μmol/L, 24 hours
Protocol: as §4

CCCc1nc2c(C)cc(-c3nc4ccccc4n3C)cc2n1Cc1ccc(-c2ccccc2C(=O)O)cc1 [telmisartan]
differentiation of 3T3-L1 adipocytes (3T3-L1 adipocytes): promoted
accumulation of lipids (Oil Red-O staining) (3T3-L1 adipocytes; 10 μmol/L, day 4): increased accumulation of lipids
luciferase activity (MW) ([1]; 1.00E−05 M): 61397 RLU
luciferase activity (MW) ([1]; 1.00E−06 M): 2859 RLU
luciferase activity (MW) ([1]; 3.00E−05 M): 58790 RLU
luciferase activity (MW) ([1]; 3.00E−06 M): 24498 RLU
luciferase activity (MW) ([1]; 3.00E−07 M): 760 RLU
regulation of the PPARgamma activity (PPARgamma [2]; PC12W cells in the absence of exogenous PPARgamma2/RXRalpha): no regulation
induction of PPARgamma activity, factor (PPARgamma [2]; PC12W cells overexpressing PPARgamma2/RXRalpha): 1.9±0.4
stimulation of aP2 expression, factor [3]: 3.1±0.3
induction of the transcriptional activity of PPARgamma, factor (PPARgamma [4]): 3.4±0.9
